Measured values reported in ChEMBL document CHEMBL6177930, “2-(4-Bromobenzyl) tethered 4-amino aryl/alkyl-5,6,7,8-tetrahydrobenzo[4,5]thieno[2,3-d]pyrimidines: design, synthesis, anticancer assessment via dual topoisomerase-I/II inhibition, and in silico studies” (RSC Med Chem, 2025).

Tested on: MDA-MB-231
Experiment: Antiproliferative activity against human MDA-MB-231 cells assessed as inhibition of cell growth at 10 uM measured after 48 to 72 hrs by MTT assay relative to control
Format: functional
Conditions: time 48-72 hrs

Row | Structure (SMILES) | inhibition at 10 µM [%]
1 | C=CCNc1nc(Cc2ccc(Br)cc2)nc2sc3c(c12)CCCC3 | 1.17
2 | C#Cc1cccc(Nc2ncnc3cc(OCCOC)c(OCCOC)cc23)c1 [ERLOTINIB] | 19.6
3 | Clc1ccccc1CNc1nc(Cc2ccc(Br)cc2)nc2sc3c(c12)CCCC3 | 0.1
4 | Fc1ccc(CNc2nc(Cc3ccc(Br)cc3)nc3sc4c(c23)CCCC4)cc1 | 10.8
5 | Brc1ccc(Cc2nc(NC3CCCCC3)c3c4c(sc3n2)CCCC4)cc1 | 1.22
6 | Brc1ccc(Cc2nc(NCc3ccccn3)c3c4c(sc3n2)CCCC4)cc1 | 1.25
7 | Fc1ccccc1CNc1nc(Cc2ccc(Br)cc2)nc2sc3c(c12)CCCC3 | 6.27
8 | OCCNc1nc(Cc2ccc(Br)cc2)nc2sc3c(c12)CCCC3 | 2.1
9 | CC(C)(C)OC(=O)N1CCN(c2nc(Cc3ccc(Br)cc3)nc3sc4c(c23)CCCC4)CC1 | 38.9
10 | COc1ccc(CNc2nc(Cc3ccc(Br)cc3)nc3sc4c(c23)CCCC4)cc1 | 13.7
11 | Brc1ccc(Cc2nc(NC3CC3)c3c4c(sc3n2)CCCC4)cc1 | 2.23

Tested on: FaDu
Experiment: Antiproliferative activity against human FaDu cells assessed as inhibition of cell growth at 10 uM measured after 48 to 72 hrs by MTT assay relative to control
Format: functional
Conditions: time 48-72 hrs

Row | Structure (SMILES) | inhibition at 10 µM [%]
12 | C=CCNc1nc(Cc2ccc(Br)cc2)nc2sc3c(c12)CCCC3 | 45.2
13 | C#Cc1cccc(Nc2ncnc3cc(OCCOC)c(OCCOC)cc23)c1 [ERLOTINIB] | 19.7
14 | Clc1ccccc1CNc1nc(Cc2ccc(Br)cc2)nc2sc3c(c12)CCCC3 | 18.1
15 | Fc1ccc(CNc2nc(Cc3ccc(Br)cc3)nc3sc4c(c23)CCCC4)cc1 | 21.4
16 | Brc1ccc(Cc2nc(NC3CCCCC3)c3c4c(sc3n2)CCCC4)cc1 | 27.4
17 | Brc1ccc(Cc2nc(NCc3ccccn3)c3c4c(sc3n2)CCCC4)cc1 | 29.1
18 | Fc1ccccc1CNc1nc(Cc2ccc(Br)cc2)nc2sc3c(c12)CCCC3 | 26.2
19 | OCCNc1nc(Cc2ccc(Br)cc2)nc2sc3c(c12)CCCC3 | 50.2
20 | CC(C)(C)OC(=O)N1CCN(c2nc(Cc3ccc(Br)cc3)nc3sc4c(c23)CCCC4)CC1 | 16.6
21 | COc1ccc(CNc2nc(Cc3ccc(Br)cc3)nc3sc4c(c23)CCCC4)cc1 | 26.8
22 | Brc1ccc(Cc2nc(NC3CC3)c3c4c(sc3n2)CCCC4)cc1 | 28.9

Tested on: not listed separately
Experiment: Antiproliferative activity against human HCC cells assessed as inhibition of cell growth at 10 uM measured after 48 to 72 hrs by MTT assay relative to control
Format: functional
Conditions: time 48-72 hrs

Row | Structure (SMILES) | inhibition at 10 µM [%]
23 | C=CCNc1nc(Cc2ccc(Br)cc2)nc2sc3c(c12)CCCC3 | 1.55
24 | C#Cc1cccc(Nc2ncnc3cc(OCCOC)c(OCCOC)cc23)c1 [ERLOTINIB] | 4.19
25 | Clc1ccccc1CNc1nc(Cc2ccc(Br)cc2)nc2sc3c(c12)CCCC3 | 1.55
26 | Fc1ccc(CNc2nc(Cc3ccc(Br)cc3)nc3sc4c(c23)CCCC4)cc1 | 1.36
27 | Brc1ccc(Cc2nc(NC3CCCCC3)c3c4c(sc3n2)CCCC4)cc1 | 12.8
28 | Brc1ccc(Cc2nc(NCc3ccccn3)c3c4c(sc3n2)CCCC4)cc1 | 2.05
29 | Fc1ccccc1CNc1nc(Cc2ccc(Br)cc2)nc2sc3c(c12)CCCC3 | 2.55
30 | OCCNc1nc(Cc2ccc(Br)cc2)nc2sc3c(c12)CCCC3 | 2
31 | CC(C)(C)OC(=O)N1CCN(c2nc(Cc3ccc(Br)cc3)nc3sc4c(c23)CCCC4)CC1 | 2.01
32 | COc1ccc(CNc2nc(Cc3ccc(Br)cc3)nc3sc4c(c23)CCCC4)cc1 | 1.01
33 | Brc1ccc(Cc2nc(NC3CC3)c3c4c(sc3n2)CCCC4)cc1 | 2.11

Tested on: MCF7
Experiment: Antiproliferative activity against human MCF7 cells assessed as inhibition of cell growth at 10 uM measured after 48 to 72 hrs by MTT assay relative to control
Format: functional
Conditions: time 48-72 hrs

Row | Structure (SMILES) | inhibition at 10 µM [%]
34 | C=CCNc1nc(Cc2ccc(Br)cc2)nc2sc3c(c12)CCCC3 | 20.5
35 | C#Cc1cccc(Nc2ncnc3cc(OCCOC)c(OCCOC)cc23)c1 [ERLOTINIB] | 6.71
36 | Clc1ccccc1CNc1nc(Cc2ccc(Br)cc2)nc2sc3c(c12)CCCC3 | 9.51
37 | Fc1ccc(CNc2nc(Cc3ccc(Br)cc3)nc3sc4c(c23)CCCC4)cc1 | 0.55
38 | Brc1ccc(Cc2nc(NC3CCCCC3)c3c4c(sc3n2)CCCC4)cc1 | 19
39 | Brc1ccc(Cc2nc(NCc3ccccn3)c3c4c(sc3n2)CCCC4)cc1 | 4.03
40 | Fc1ccccc1CNc1nc(Cc2ccc(Br)cc2)nc2sc3c(c12)CCCC3 | 19.4
41 | OCCNc1nc(Cc2ccc(Br)cc2)nc2sc3c(c12)CCCC3 | 2.71
42 | CC(C)(C)OC(=O)N1CCN(c2nc(Cc3ccc(Br)cc3)nc3sc4c(c23)CCCC4)CC1 | 15.1
43 | COc1ccc(CNc2nc(Cc3ccc(Br)cc3)nc3sc4c(c23)CCCC4)cc1 | 29.6
44 | Brc1ccc(Cc2nc(NC3CC3)c3c4c(sc3n2)CCCC4)cc1 | 38.5

Tested on: A549
Experiment: Antiproliferative activity against human A549 cells assessed as inhibition of cell growth at 10 uM measured after 48 to 72 hrs by MTT assay relative to control
Format: functional
Conditions: time 48-72 hrs

Row | Structure (SMILES) | inhibition at 10 µM [%]
45 | C=CCNc1nc(Cc2ccc(Br)cc2)nc2sc3c(c12)CCCC3 | 2.89
46 | Clc1ccccc1CNc1nc(Cc2ccc(Br)cc2)nc2sc3c(c12)CCCC3 | 2.67
47 | Fc1ccc(CNc2nc(Cc3ccc(Br)cc3)nc3sc4c(c23)CCCC4)cc1 | 1.55
48 | Brc1ccc(Cc2nc(NC3CCCCC3)c3c4c(sc3n2)CCCC4)cc1 | 1.56
49 | Brc1ccc(Cc2nc(NCc3ccccn3)c3c4c(sc3n2)CCCC4)cc1 | 3.32
50 | Fc1ccccc1CNc1nc(Cc2ccc(Br)cc2)nc2sc3c(c12)CCCC3 | 3.45
51 | OCCNc1nc(Cc2ccc(Br)cc2)nc2sc3c(c12)CCCC3 | 1.21
52 | CC(C)(C)OC(=O)N1CCN(c2nc(Cc3ccc(Br)cc3)nc3sc4c(c23)CCCC4)CC1 | 0.29
53 | COc1ccc(CNc2nc(Cc3ccc(Br)cc3)nc3sc4c(c23)CCCC4)cc1 | 1.69
54 | Brc1ccc(Cc2nc(NC3CC3)c3c4c(sc3n2)CCCC4)cc1 | 1.11

Tested on: T47D
Experiment: Antiproliferative activity against human T47D cells assessed as inhibition of cell growth at 10 uM measured after 48 to 72 hrs by MTT assay relative to control
Format: functional
Conditions: time 48-72 hrs

Row | Structure (SMILES) | inhibition at 10 µM [%]
55 | C=CCNc1nc(Cc2ccc(Br)cc2)nc2sc3c(c12)CCCC3 | 2.35
56 | C#Cc1cccc(Nc2ncnc3cc(OCCOC)c(OCCOC)cc23)c1 [ERLOTINIB] | 1.27
57 | Clc1ccccc1CNc1nc(Cc2ccc(Br)cc2)nc2sc3c(c12)CCCC3 | 3.69
58 | Fc1ccc(CNc2nc(Cc3ccc(Br)cc3)nc3sc4c(c23)CCCC4)cc1 | 2.58
59 | Brc1ccc(Cc2nc(NC3CCCCC3)c3c4c(sc3n2)CCCC4)cc1 | 1.35
60 | Brc1ccc(Cc2nc(NCc3ccccn3)c3c4c(sc3n2)CCCC4)cc1 | 17.9
61 | Fc1ccccc1CNc1nc(Cc2ccc(Br)cc2)nc2sc3c(c12)CCCC3 | 2.14
62 | OCCNc1nc(Cc2ccc(Br)cc2)nc2sc3c(c12)CCCC3 | 5.73
63 | CC(C)(C)OC(=O)N1CCN(c2nc(Cc3ccc(Br)cc3)nc3sc4c(c23)CCCC4)CC1 | 3.33
64 | COc1ccc(CNc2nc(Cc3ccc(Br)cc3)nc3sc4c(c23)CCCC4)cc1 | 1.05
65 | Brc1ccc(Cc2nc(NC3CC3)c3c4c(sc3n2)CCCC4)cc1 | 1.31
